PubChem BioAssay AID248 (DTP/NCI, 2004)
Values joined by “and” are separate entries in the source; they are usually repeats but may differ in a detail not shown here. Equal entries are not always repeated. Toxic doses and inconclusive results are not listed.

Tested on: L1210 leukemia ip in BDF1 mice, survival T/C
Experiment: NCI In Vivo Anticancer Drug Screen. Data for tumor model L1210 Leukemia (intraperitoneal) in B6D2F1 (BDF1) mice
Settings: higher = longer survival
In short: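 Transplantable tumor model; survival measured in treated vs vehicle control mice. Value = treated/control.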

SMILES: COc1cc2c(c(OC)c1OC)-c1ccc(OC)c(=O)cc1[C@@H](NC(C)=O)CC2
- T/C (endpoint: mean survival time, dose: 0.01 mg/kg/injection, schedule: Q01DX010 (ip), vehicle: saline): 96 % of control and 97 % of control
- T/C (endpoint: mean survival time, dose: 0.02 mg/kg/injection, schedule: Q01DX010 (ip), vehicle: saline): 93 % of control and 103 % of control
- T/C (endpoint: mean survival time, dose: 0.04 mg/kg/injection, schedule: Q01DX010 (ip), vehicle: saline): 102 % of control and 103 % of control
- T/C (endpoint: mean survival time, dose: 0.06 mg/kg/injection, schedule: Q01DX015 (ip), vehicle: saline): 98 % of control
- T/C (endpoint: mean survival time, dose: 0.08 mg/kg/injection, schedule: Q01DX010 (ip), vehicle: saline): 102 % of control and 115 % of control
- T/C (endpoint: mean survival time, dose: 0.09 mg/kg/injection, schedule: Q01DX015 (ip), vehicle: saline): 100 % of control
- T/C (endpoint: mean survival time, dose: 0.09 mg/kg/injection, schedule: Q02DX008 (ip), vehicle: saline): 97 % of control
- T/C (endpoint: mean survival time, dose: 0.1 mg/kg/injection, schedule: Q## X032 (ip), vehicle: saline): 98 % of control
- T/C (endpoint: mean survival time, dose: 0.13 mg/kg/injection, schedule: Q01DX009 (ip), vehicle: saline): 110 % of control
- T/C (endpoint: mean survival time, dose: 0.13 mg/kg/injection, schedule: Q01DX015 (ip), vehicle: saline): 104 % of control
- T/C (endpoint: mean survival time, dose: 0.13 mg/kg/injection, schedule: Q02DX008 (ip), vehicle: saline): 97 % of control
- T/C (endpoint: mean survival time, dose: 0.16 mg/kg/injection, schedule: Q## X032 (ip), vehicle: saline): 97 % of control
- T/C (endpoint: mean survival time, dose: 0.2 mg/kg/injection, schedule: Q01DX015 (ip), vehicle: saline): 113 % of control
- T/C (endpoint: mean survival time, dose: 0.2 mg/kg/injection, schedule: Q02DX008 (ip), vehicle: saline): 103 % of control
- T/C (endpoint: mean survival time, dose: 0.24 mg/kg/injection, schedule: Q## X032 (ip), vehicle: saline): 100 % of control
- T/C (endpoint: mean survival time, dose: 0.25 mg/kg/injection, schedule: Q01DX005 (oral), vehicle: saline): 102 % of control
- T/C (endpoint: mean survival time, dose: 0.25 mg/kg/injection, schedule: Q01DX009 (ip), vehicle: saline): 113 % of control
- T/C (endpoint: mean survival time, dose: 0.25 mg/kg/injection, schedule: Q04DX003 (ip), vehicle: saline): 121 % of control
- T/C (endpoint: mean survival time, dose: 0.3 mg/kg/injection, schedule: Q01DX015 (ip), vehicle: saline): 117 % of control
- T/C (endpoint: mean survival time, dose: 0.3 mg/kg/injection, schedule: Q02DX008 (ip), vehicle: saline): 106 % of control
- T/C (endpoint: mean survival time, dose: 0.36 mg/kg/injection, schedule: Q## X032 (ip), vehicle: saline): 102 % of control
- T/C (endpoint: mean survival time, dose: 0.45 mg/kg/injection, schedule: Q02DX008 (ip), vehicle: saline): 120 % of control
- T/C (endpoint: mean survival time, dose: 0.5 mg/kg/injection, schedule: Q01DX001 (iv), vehicle: saline): 93 % of control
- T/C (endpoint: mean survival time, dose: 0.5 mg/kg/injection, schedule: Q01DX005 (oral), vehicle: saline): 101 % of control
- T/C (endpoint: mean survival time, dose: 0.5 mg/kg/injection, schedule: Q01DX009 (ip), vehicle: saline): 108 % of control
- T/C (endpoint: mean survival time, dose: 0.5 mg/kg/injection, schedule: Q04DX003 (ip), vehicle: saline): 116 % of control
- T/C (endpoint: mean survival time, dose: 0.5 mg/kg/injection, schedule: Q## X032 (ip), vehicle: saline): 105 % of control
- T/C (endpoint: mean survival time, dose: 0.54 mg/kg/injection, schedule: Q04DX004 (ip), vehicle: saline): 112 % of control
- T/C (endpoint: mean survival time, dose: 0.54 mg/kg/injection, schedule: Q## X032 (ip), vehicle: saline): 105 % of control
- T/C (endpoint: mean survival time, dose: 0.6 mg/kg/injection, schedule: Q## X004 (ip), vehicle: saline): 112 % of control
- T/C (endpoint: mean survival time, dose: 0.8 mg/kg/injection, schedule: Q04DX004 (ip), vehicle: saline): 114 % of control
- T/C (endpoint: mean survival time, dose: 0.8 mg/kg/injection, schedule: Q## X032 (ip), vehicle: saline): 114 % of control
- T/C (endpoint: mean survival time, dose: 0.9 mg/kg/injection, schedule: Q## X004 (ip), vehicle: saline): 114 % of control
- T/C (endpoint: mean survival time, dose: 1.0 mg/kg/injection, schedule: Q01DX001 (iv), vehicle: saline): 97 % of control
- T/C (endpoint: mean survival time, dose: 1.0 mg/kg/injection, schedule: Q01DX005 (oral), vehicle: saline): 100 % of control
- T/C (endpoint: mean survival time, dose: 1.0 mg/kg/injection, schedule: Q01DX009 (ip), vehicle: saline): 122 % of control
- T/C (endpoint: mean survival time, dose: 1.0 mg/kg/injection, schedule: Q04DX003 (ip), vehicle: saline): 104 % of control
- T/C (endpoint: mean survival time, dose: 1.2 mg/kg/injection, schedule: Q04DX004 (ip), vehicle: saline): 116 % of control
- T/C (endpoint: mean survival time, dose: 1.25 mg/kg/injection, schedule: Q01DX001 (ip), vehicle: saline): 101 % of control and 114 % of control and 123 % of control
- T/C (endpoint: mean survival time, dose: 1.3 mg/kg/injection, schedule: Q## X004 (ip), vehicle: saline): 121 % of control
- T/C (endpoint: mean survival time, dose: 1.6 mg/kg/injection, schedule: Q## X032 (ip), vehicle: saline): 124 % of control
- T/C (endpoint: mean survival time, dose: 2.0 mg/kg/injection, schedule: Q01DX001 (iv), vehicle: saline): 107 % of control
- T/C (endpoint: mean survival time, dose: 2.0 mg/kg/injection, schedule: Q01DX001 (oral), vehicle: saline): 91 % of control
- T/C (endpoint: mean survival time, dose: 2.0 mg/kg/injection, schedule: Q01DX005 (oral), vehicle: saline): 92 % of control
- T/C (endpoint: mean survival time, dose: 2.0 mg/kg/injection, schedule: Q## X004 (ip), vehicle: saline): 156 % of control
- T/C (endpoint: mean survival time, dose: 2.5 mg/kg/injection, schedule: Q01DX001 (ip), vehicle: saline): 118 % of control and 124 % of control
- T/C (endpoint: mean survival time, dose: 3.6 mg/kg/injection, schedule: Q## X032 (ip), vehicle: saline): 102 % of control
- T/C (endpoint: mean survival time, dose: 4.0 mg/kg/injection, schedule: Q01DX001 (iv), vehicle: saline): 97 % of control
- T/C (endpoint: mean survival time, dose: 4.0 mg/kg/injection, schedule: Q01DX001 (oral), vehicle: saline): 100 % of control
- T/C (endpoint: mean survival time, dose: 4.0 mg/kg/injection, schedule: Q08DX002 (ip), vehicle: saline): 108 % of control
- T/C (endpoint: mean survival time, dose: 5.0 mg/kg/injection, schedule: Q01DX001 (ip), vehicle: saline): 94 % of control and 118 % of control
- T/C (endpoint: mean survival time, dose: 8.0 mg/kg/injection, schedule: Q01DX001 (oral), vehicle: saline): 92 % of control
- T/C (endpoint: mean survival time, dose: 31.2 micrograms/kg/injection, schedule: Q03HX024 (ip), vehicle: saline): 97 % of control
- T/C (endpoint: mean survival time, dose: 62.5 micrograms/kg/injection, schedule: Q01DX005 (iv), vehicle: saline): 100 % of control
- T/C (endpoint: mean survival time, dose: 62.5 micrograms/kg/injection, schedule: Q01DX009 (ip), vehicle: saline): 101 % of control
- T/C (endpoint: mean survival time, dose: 62.5 micrograms/kg/injection, schedule: Q03HX016 (ip), vehicle: saline): 102 % of control
- T/C (endpoint: mean survival time, dose: 62.5 micrograms/kg/injection, schedule: Q03HX024 (ip), vehicle: saline): 104 % of control
- T/C (endpoint: mean survival time, dose: 125.0 micrograms/kg/injection, schedule: Q01DX005 (iv), vehicle: saline): 98 % of control
- T/C (endpoint: mean survival time, dose: 125.0 micrograms/kg/injection, schedule: Q01DX009 (ip), vehicle: saline): 115 % of control
- T/C (endpoint: mean survival time, dose: 125.0 micrograms/kg/injection, schedule: Q03HX008 (ip), vehicle: saline): 123 % of control
- T/C (endpoint: mean survival time, dose: 125.0 micrograms/kg/injection, schedule: Q03HX016 (ip), vehicle: saline): 107 % of control
- T/C (endpoint: mean survival time, dose: 125.0 micrograms/kg/injection, schedule: Q03HX024 (ip), vehicle: saline): 109 % of control
- T/C (endpoint: mean survival time, dose: 250.0 micrograms/kg/injection, schedule: Q01DX005 (iv), vehicle: saline): 98 % of control
- T/C (endpoint: mean survival time, dose: 250.0 micrograms/kg/injection, schedule: Q03HX016 (ip), vehicle: saline): 121 % of control
- T/C (endpoint: mean survival time, dose: 250.0 micrograms/kg/injection, schedule: Q03HX024 (ip), vehicle: saline): 96 % of control
- T/C (endpoint: mean survival time, dose: 500.0 micrograms/kg/injection, schedule: Q01DX005 (iv), vehicle: saline): 100 % of control
- T/C (endpoint: mean survival time, dose: 1000.0 micrograms/kg/injection, schedule: Q01DX005 (iv), vehicle: saline): 107 % of control
- T/C (endpoint: mean survival time, dose: 1000.0 micrograms/kg/injection, schedule: Q01DX009 (ip), vehicle: saline): 87 % of control
- T/C (endpoint: median survival time, dose: 0.02 mg/kg/injection, schedule: Q01DX009 (ip), vehicle: saline): 93 % of control and 100 % of control
- T/C (endpoint: median survival time, dose: 0.04 mg/kg/injection, schedule: Q01DX009 (ip), vehicle: saline): 100 % of control
- T/C (endpoint: median survival time, dose: 0.08 mg/kg/injection, schedule: Q01DX009 (ip), vehicle: saline): 106 % of control and 111 % of control
- T/C (endpoint: median survival time, dose: 0.16 mg/kg/injection, schedule: Q01DX009 (ip), vehicle: saline): 112 % of control

SMILES: CCN(CC)Cc1ccc(N)cc1
- T/C (endpoint: mean survival time, dose: 12.5 mg/kg/injection, schedule: Q01DX009 (ip), vehicle: saline): 100 % of control
- T/C (endpoint: mean survival time, dose: 25.0 mg/kg/injection, schedule: Q01DX009 (ip), vehicle: saline): 110 % of control

SMILES: Nc1ccc2c(c1)C(=O)c1c(F)c(F)c(F)c(F)c1-2
- T/C (endpoint: mean survival time, dose: 50.0 mg/kg/injection, schedule: Q01DX001 (ip), vehicle: carboxymethylcellulose (CMC)): 97 % of control
- T/C (endpoint: mean survival time, dose: 100.0 mg/kg/injection, schedule: Q01DX001 (ip), vehicle: carboxymethylcellulose (CMC)): 103 % of control
- T/C (endpoint: mean survival time, dose: 200.0 mg/kg/injection, schedule: Q01DX001 (ip), vehicle: carboxymethylcellulose (CMC)): 97 % of control
- T/C (endpoint: mean survival time, dose: 400.0 mg/kg/injection, schedule: Q01DX001 (ip), vehicle: carboxymethylcellulose (CMC)): 100 % of control

SMILES: Fc1ccccc1CSc1ncnc2nc[nH]c12
- T/C (endpoint: mean survival time, dose: 40.0 mg/kg/injection, schedule: Q01DX009 (ip), vehicle: saline): 115 % of control
- T/C (endpoint: mean survival time, dose: 150.0 mg/kg/injection, schedule: Q01DX009 (ip), vehicle: saline): 157 % of control
- T/C (endpoint: mean survival time, dose: 175.0 mg/kg/injection, schedule: Q01DX001 (ip), vehicle: saline): 117 % of control and 118 % of control
- T/C (endpoint: mean survival time, dose: 265.0 mg/kg/injection, schedule: Q01DX001 (ip), vehicle: saline): 112 % of control and 120 % of control
- T/C (endpoint: mean survival time, dose: 400.0 mg/kg/injection, schedule: Q01DX001 (ip), vehicle: saline): 122 % of control
- T/C (endpoint: mean survival time, dose: 600.0 mg/kg/injection, schedule: Q01DX001 (ip), vehicle: saline): 100 % of control
